Columns and labels:
[1] = test system: STEME; assay: Pre-emergence action against STEME, 1280 g/ha; format: in vivo, Stellaria media; conditions: scored visually after about 3 weeks vs untreated controls (100% = plants have died)
Summary of the method: (§1)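 Pre-emergence pot test: seeds in sandy loam, soil-covered, sprayed on soil surface (WP/EC, 0.5% additive, 600 L/ha water); greenhouse ~3 wk; visual % effect vs untreated, 0–100%.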

[2] = test system: VERPE; assay: Post-emergence action against VERPE, 1.28 kg/ha; format: in vivo, Veronica persica; conditions: dosage 1280 g/ha, visual rating about 3 weeks after treatment vs untreated controls (100% = plants died)
Summary of the method: (§2)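 Greenhouse-grown weeds (sandy loam, twin-sown pots) were treated 2–3 weeks post-sowing at one leaf. The spray was an aqueous WP/EC preparation plus 0.5% additive, applied at 600 L/ha. Scoring was visual at ~3 weeks, 0–100% versus untreated controls.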

[3] = test system: MATIN; assay: Post-emergence action against MATIN, 1.28 kg/ha; format: in vivo, Tripleurospermum inodorum (Matricaria inodora); conditions: dosage 1280 g/ha, visual rating about 3 weeks after treatment vs untreated controls (100% = plants died)
Summary of the method: as §2

[4] = test system: POAAN; assay: Post-emergence action against POAAN, 1.28 kg/ha; format: in vivo, Poa annua; conditions: dosage 1280 g/ha, visual rating about 3 weeks after treatment vs untreated controls
Summary of the method: as §2

[5] = test system: MATIN; assay: Pre-emergence action against MATIN, 1280 g/ha; format: in vivo, Tripleurospermum inodorum (Matricaria inodora); conditions: scored visually after about 3 weeks vs untreated controls (100% = plants have died)
Summary of the method: as §1

[6] = test system: ALOMY; assay: Post-emergence action against ALOMY, 1.28 kg/ha; format: in vivo, Alopecurus myosuroides; conditions: dosage 1280 g/ha, visual rating about 3 weeks after treatment vs untreated controls
Summary of the method: as §2

[7] = test system: POAAN; assay: Pre-emergence action against POAAN, 1280 g/ha; format: in vivo, Poa annua; conditions: visual scoring after about 3 weeks vs untreated controls, 100% = plants have died, 0% = like control plants
Summary of the method: as §1

[8] = test system: SETVI; assay: Pre-emergence action against SETVI, 1280 g/ha; format: in vivo, Setaria viridis; conditions: visual scoring after about 3 weeks vs untreated controls, 100% = plants have died, 0% = like control plants
Summary of the method: as §1

[9] = test system: DIGSA; assay: Pre-emergence action against DIGSA, 1280 g/ha; format: in vivo, Digitaria sanguinalis; conditions: visual scoring after about 3 weeks vs untreated controls, 100% = plants have died, 0% = like control plants
Summary of the method: as §1

[10] = test system: KCHSC; assay: Pre-emergence action against KCHSC, 1280 g/ha; format: in vivo, Bassia scoparia; conditions: scored visually after about 3 weeks vs untreated controls (100% = plants have died)
Source text: 1. Pre-Emergence Herbicidal Effect and Crop Plant Compatibility a) Seeds of mono- and dicotyledonous weed plants are placed in plastic pots in sandy loam soil (doubly sown with one species each of mono- or dicotyledonous weed plants per pot) and covered with soil. The compounds of the invention, formulated in the form of wettable powders (WP) or as emulsion concentrates (EC), are then applied onto the surface of the covering soil as aqueous suspension or emulsion with addition of 0.5% additive at a water application rate equivalent to 600 litres per hectare. After the treatment, the pots are placed in a greenhouse and kept under good growth conditions for the trial plants. After about 3 weeks, the effect of the preparations is scored visually in comparison with untreated controls as percentages. For example, 100% activity=the plants have died, 0% activity=like control plants. 1. Pre-Emergence Effectiveness Tables 1 to 12 below show the effects of selected compounds of the general formula (I) according to Tables 1 and 2 on various harmful plants and at an application rate corresponding to 1280 g/ha, which were obtained by the experimental procedure mentioned above.

[11] = test system: AMARE; assay: Pre-emergence action against AMARE, 1280 g/ha; format: in vivo, Amaranthus retroflexus; conditions: scored visually after about 3 weeks vs untreated controls (100% = plants have died)
Summary of the method: as §1

## O=C(COc1nn(-c2ccccc2F)c(-c2ccc(F)cn2)c1Br)NO [II-017]
[1]
  Pre-emergence action against STEME: 90%
[2]
  Post-emergence action against VERPE: 90%
[3]
  Post-emergence action against MATIN: 90%
[4]
  Post-emergence action against POAAN: 100%
[5]
  Pre-emergence action against MATIN: 90%
[6]
  Post-emergence action against ALOMY: 100%
[7]
  Pre-emergence action against POAAN: 100%
[8]
  Pre-emergence action against SETVI: 100%
[9]
  Pre-emergence action against DIGSA: 100%
[10]
  Pre-emergence action against KCHSC: 100%
[11]
  Pre-emergence action against AMARE: 100%
